We go through one molecule from patent US20240183860A1, “Chimeric ABC Transporters and Screening Methods” (Genentech, Inc., priority 2021, published 2024).

Assay [1] has as its target Enterobacter cloacae MsbA (EnMsbA). Kind of assay: MsbA ATPase assay, amphipol-reconstituted homologue. It counts as biochemical. To be noted: FIGS. 13A, 13C. The procedure:
(§1) The ATPase activity of MsbA was measured using a Transcreener ADP2 FP Assay (BellBrook Labs). […] The final condition for the reaction was MsbA enzyme, 50 μM ATP in 50 mM Tris pH 7.5, 10 mM MgCl2, 1% glycerol, 0.1% bovine gamma globulin, 1 mM dithiothreitol (DTT), 0.007% Brij-35 and 0.5% dimethylsulfoxide (DMSO). The following concentrations were used for each MsbA variant: 5 nM of EcMsbA, EnMsbA, KpMsbA and 80 nM PaMsbA reconstituted in amphipol, 15 nM EcMsbA and EcMsbA-chim5 in LMNG detergent, 22 nM EcMsbA and 27 nM EcMsbA-12G7 complex in aDDM detergent. The enzyme reaction was incubated for 1 hour at room temperature, then quenched by adding the Transcreener Detection Buffer. The IC50 was determined by fitting the inhibition dose-response curve with a nonlinear four-parameter inhibition model (GraphPad Prism).

Assay [2] deals with Klebsiella pneumoniae MsbA (KpMsbA). The assay is described as above. As to conditions: FIGS. 13A, 13C. It counts as biochemical. The procedure:
as §1

Assay [3] addresses T1, Pseudomonas aeruginosa MsbA (PaMsbA) (Pseudomonas aeruginosa, UniProt Q9HUG8).
T1 construct: FLAG; made in house; host or cells: not restated ('similarly expressed')
T1 sequence (Q9HUG8 1-603): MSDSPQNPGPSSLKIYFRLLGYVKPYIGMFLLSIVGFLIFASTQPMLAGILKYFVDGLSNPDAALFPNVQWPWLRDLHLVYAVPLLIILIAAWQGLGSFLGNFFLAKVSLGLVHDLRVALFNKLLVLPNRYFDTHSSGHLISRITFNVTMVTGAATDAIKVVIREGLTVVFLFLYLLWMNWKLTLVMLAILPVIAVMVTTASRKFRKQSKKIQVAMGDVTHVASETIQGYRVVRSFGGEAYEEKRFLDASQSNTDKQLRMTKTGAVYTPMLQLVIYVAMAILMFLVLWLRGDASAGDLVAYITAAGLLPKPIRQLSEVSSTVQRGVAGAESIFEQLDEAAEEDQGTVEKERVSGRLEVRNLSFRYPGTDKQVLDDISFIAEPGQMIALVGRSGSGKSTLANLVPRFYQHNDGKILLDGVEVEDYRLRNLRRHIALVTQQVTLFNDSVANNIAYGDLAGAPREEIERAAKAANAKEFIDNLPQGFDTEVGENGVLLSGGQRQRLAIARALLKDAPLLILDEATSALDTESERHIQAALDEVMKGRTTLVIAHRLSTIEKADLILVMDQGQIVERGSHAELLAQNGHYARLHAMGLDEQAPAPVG
Described as above. It counts as biochemical. The method, then:
as §1

Assay [4] deals with T2, EcMsbA-chim5 (MsbA-chimera5) (Escherichia coli, UniProt P60752, D53T/D54Y/D60K/DEL268-292/DEL57-57/F265A/G55I/I169L/INS266IAYAGNRVIHEDMRSGALIAFIAAL/INS66P/K49D/K58D/L171A/L263V/L51V/L52I/M159V/M67L/P68V/S164D/S62H/T59E/V63D/Y163E).
T2 construct: FLAG (N); made in house; host or cells: E. coli Rosetta 2 (DE3), pET-52b vector
Kind of assay: biochemical. It counts as biochemical. The procedure:
as §1

For assay [5], the system named is EcMsbA-chim5 (MsbA-chimera5). As to the kind of experiment: biochemical. In kind it is biochemical, Escherichia coli. As to conditions: ratio of ATPase IC50s. The method, then: as §1
A further assay concerns the target T3, E. coli MsbA (EcMsbA) (Escherichia coli, UniProt P60752).
T3 construct: FLAG (N); made in house; host or cells: E. coli (strain for the WT protein not restated)
As to the kind of experiment: MsbA ATPase assay (Transcreener ADP2 FP). It counts as biochemical. The method, then: as §1

Assay [6] has as its system WT E. coli cells with an intact outer membrane (CFT073, UPEC WT). Kind of assay: Cellular IC50 determination (BacTiter-Glo, 6 hours). It counts as cell-based, Escherichia coli. The method, then:
The cellular IC50's of various bacterial strains (Table 2) were determined.
200 nL aliquots of eight 2-fold dilutions of each compound were dispensed in duplicate into 384-well plates using an Echo Liquid Handler (Labcyte). Strains were grown in cation-adjusted Mueller Hinton Broth with 0.002% Tween overnight for 16 hours, washed with PBS, resuspended at OD600=1 in cation-adjusted Mueller Hinton Broth with 0.002% Tween and 10% glycerol, and frozen in […] aliquots. For each experiment, aliquots were thawed on ice and diluted 1:1000 into cation-adjusted Mueller Hinton Broth with 0.002% Tween. 10 μL cells/well were added to 384-well plates containing compound. Plates were incubated for 6 hours at 37° C., then 10 μL BacTiter-Glo reagent (Promega) was added to each well and luminescence was measured. IC50's were calculated using Genedata Screener software.

The test system of assay [7] is E. coli CFT073 lptD(imp4213) cells. Kind of assay: Electron microscopy of inhibitor-exposed cells (membrane phenotype, LPS transport). In kind it is cell-based, Escherichia coli. The text has this: In some embodiments, one or more functional assays may be performed to test the effect of molecules identified in a screen on the function of the parental ABC transporter. For example, in some cases, a molecule that binds to the periplasmic, extracellular, and/or luminal face of an ABC transporter acts as an inhibitor of the transporter. For example, if inhibition of an ABC transporter activity is expected to result in loss of cell viability or reduction of cell growth, for example, then a cell viability or growth assay can be conducted to determine if presence of the identified molecule affects these parameters. In some cases, other assays may be conducted to determine the impact of a molecule on the function of the transporter. In some cases, the transport of the transporter's substrate in the presence and absence of the molecule can be tested. […] Lack of LPS transport causes a stacking of inner and outer membranes at the surface of a bacterial cell that is clearly visible by EM. Appropriate functional assays for the ABC transporter in question are known or may be readily developed based on knowledge in the art.
Electron microscopy of E. coli CFT073 lptD(imp4213) or CFT073 lptD(imp4213) msbA-cond-ko cells rescued with pLMG18 plasmids expressing the indicated E. coli MsbA mutants was performed as described previously (Ho et al., 2018). […]

The test system of assay [8] is imp E. coli (lptD(imp4213)), E. coli MsbA. Kind of assay: Broth MIC assay. In kind it is cell-based, Escherichia coli. As to conditions: cells containing the lptD(imp4213) allele. The procedure:
Broth MICs were determined in cation-adjusted Mueller-Hinton broth with 0.002% Tween-80, as previously described (Ho et al., 2018).

Converted amounts (≈) assume the structure as drawn. “Also recorded” adds a separate entry of the source. Bridge positions count the residues as written; N and C are the ends. Square brackets hold non-standard residues; d marks the D form. Peptide text beside a SMILES is read from it. NMeF = CN[C@@H](Cc1ccccc1)C(=O)O Bounds are passed on as bounds.

T3 sequence (P60752 whole entry): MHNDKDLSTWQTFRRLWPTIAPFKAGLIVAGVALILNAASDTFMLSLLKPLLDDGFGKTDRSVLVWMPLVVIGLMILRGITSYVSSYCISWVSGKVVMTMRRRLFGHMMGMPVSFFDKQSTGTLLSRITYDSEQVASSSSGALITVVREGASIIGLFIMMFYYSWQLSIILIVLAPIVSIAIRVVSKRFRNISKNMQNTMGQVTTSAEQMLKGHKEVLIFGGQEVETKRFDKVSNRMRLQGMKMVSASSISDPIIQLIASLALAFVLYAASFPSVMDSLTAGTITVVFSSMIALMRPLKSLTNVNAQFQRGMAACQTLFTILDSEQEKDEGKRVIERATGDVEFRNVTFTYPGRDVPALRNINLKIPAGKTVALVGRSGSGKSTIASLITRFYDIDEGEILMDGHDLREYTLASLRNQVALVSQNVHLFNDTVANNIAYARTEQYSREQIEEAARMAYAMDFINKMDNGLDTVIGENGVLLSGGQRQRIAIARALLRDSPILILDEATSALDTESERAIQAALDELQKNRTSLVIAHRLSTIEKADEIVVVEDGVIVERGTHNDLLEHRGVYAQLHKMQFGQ
T2 sequence (P60752 with tags, fused parts or gaps with the stated changes): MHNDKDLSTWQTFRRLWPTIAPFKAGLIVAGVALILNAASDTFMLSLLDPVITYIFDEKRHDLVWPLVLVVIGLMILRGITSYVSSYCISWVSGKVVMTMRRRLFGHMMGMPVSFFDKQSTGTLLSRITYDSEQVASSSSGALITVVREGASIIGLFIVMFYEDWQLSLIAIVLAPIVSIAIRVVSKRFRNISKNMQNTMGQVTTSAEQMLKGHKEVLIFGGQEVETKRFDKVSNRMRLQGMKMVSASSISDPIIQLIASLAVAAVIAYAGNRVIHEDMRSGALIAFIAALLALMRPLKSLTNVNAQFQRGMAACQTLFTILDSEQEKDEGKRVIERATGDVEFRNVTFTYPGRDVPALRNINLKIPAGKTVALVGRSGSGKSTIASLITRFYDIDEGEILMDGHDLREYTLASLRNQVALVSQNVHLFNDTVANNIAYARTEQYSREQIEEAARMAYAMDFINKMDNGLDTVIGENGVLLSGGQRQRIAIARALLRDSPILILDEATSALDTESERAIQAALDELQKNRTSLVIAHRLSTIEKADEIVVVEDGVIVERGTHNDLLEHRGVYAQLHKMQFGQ

Usually IC50 stands for the concentration that gives 50% inhibition. The low end stands for greater potency, the high end for weaker potency. As for `CC(C)C[C@@H]1NC(=O)[C@H](Cc2c[nH]c3ccccc23)NC(=O)[C@H](Cc2c[nH]c3ccccc23)NC(=O)[C@H](Cc2ccccc2)NC(=O)CSC[C@@H](C(=O)NCC(N)=O)NC(=O)[C@H](C(C)C)NC(=O)[C@H](Cc2ccccc2)N(C)C(=O)[C@H](Cc2c[nH]c3ccccc23)NC(=O)[C@H](Cc2c[nH]c3ccccc23)NC(=O)[C@H](CO)NC(=O)[C@H](C(C)C)NC(=O)[C@H](CC(=O)O)NC(=O)[C@H](CC(=O)O)NC(=O)[C@H](Cc2c[nH]c3ccccc23)NC1=O` [Compound G1118] ({CH2CO}-FWWLWDDVSWW[NMeF]VCG-NH2; thioether N-14), the IC50 was roughly 0.24 µM in [1]; roughly 0.12 µM in assay [2]; 3.1 µM in [3]; greater than 5 µM in [4]; 0.005 µM at E. coli MsbA (EcMsbA) (IC50 for binding to MsbA in an imp E. coli strain, worded as binding to MsbA in imp E. coli strain (outer membrane permeable), FIG. 3F); roughly 0.11 µM on E. coli MsbA (EcMsbA) (half-maximum inhibitory concentration (IC50), ATPase activity of EcMsbA, purified WT EcMsbA, FIG. 3C). Also, in assay [5], the “lower potency on purified MsbA-chim5 versus EcMsbA” value is on record as greater than 30 fold. In addition, the “activity on WT E. coli with an intact outer membrane” value in assay [6] was “no activity was observed”. Also, in [7], the “LPS transport activity of E. coli MsbA” value is listed as “inhibit LPS transport activity”. Besides, the “inner membrane elaboration / membrane stacking phenotype” value in assay [7] (electron micrographs, imp cells treated with inhibitor) is “gave rise to the distinctive inner membrane elaboration phenotype; also recorded: mirrored the distinctive inner membrane elaboration phenotype”. The “minimum inhibitory concentration (MIC)” value in assay [8] is roughly 210 µg/mL (≈ 101 µM).
